Measured values published in patent US9682993B2, “Anticancer compounds” (ST. JUDE CHILDREN'S RESEARCH HOSPITAL, priority 2012, dated 2017).

How the values were obtained:
[1] = system: MDM2 alternative splicing in Rh18 cells; experiment: In vitro alternative splicing assay (MDM2, RT-PCR); assay type: cell-based; settings: Rh18, 8 h, PCR (FIG. 9)
Description: Briefly, following an 8 h exposure of exponentially growing cells to drug, total RNA was isolated using TRIzol reagent (Invitrogen, Carlsbad, Calif.). Total RNA (1 μg) was used to convert the mRNA to cDNA by using random primers, Oligo(dT)16 and Omniscript Reverse Transcription Kit (Qiagen, Germantown, Md.). PCR analyses were performed using specific oligonucleotides (see Table I) and standard amplification protocols. PCR products were separated by agarose gel electrophoresis, visualized by ethidium bromide staining on an UV transilluminator, and recorded. PCR band sizes were calculated by comparing them to the standard EZ Load 100-bp PCR Molecular Ruler (BioRad Laboratories, Hercules, Calif.).

[2] = In vivo plasma pharmacokinetic study in C.B-17 scid mice
Description: A sensitive and specific LC-MS/MS assay was developed for quantification of compound 20 in plasma for application in a murine pharmacokinetic study. Calibrators and quality controls (QCs) were prepared using 100% methanol stocks in blank C.B-17 scid mouse plasma with lithium heparin anticoagulant. The calibrators and QCs, 25 μL each, were stored briefly on wet ice and then protein precipitated with 75 μL of ice cold compound 19 internal standard processing solution. The supernatants, 100 μL of each, were mixed with 100 μL of methanol-10 mM ammonium bicarbonate, pH 7.0 (50:50 v/v) and injected from the 96-well plate to the LC-MS/MS system via a CTC HTS PAL autosampler. Chromatography was performed using a Phenomenex Synergi Fusion-RP C18 column ([…], 50 mm×2.0 mm) maintained at 35° C., and a linear gradient mobile phase consisting of water:methanol:acetonitrile ([…], v/v) to methanol: acetonitrile (70:30, v/v) and back. […] Detection was performed with an AB Sciex 5500 QTRAP LC-MS/MS System equipped with a Turbo IonSpray® source using the positive multiple-reaction monitoring (MRM) mode. The transitions monitored included m/x 475->288 for compound 20 and m/x 489->400 for compound 19, which served as an internal standard. The lower limit of quantitation was 1 ng/mL (5× S:N ration, <20% CV); intra-run precision and accuracy was ≦11.2% CV and 96.5-103%, respectively. The calibration curve was linear from 1 to 500 ng/mL (R=0.9968) and QC samples above the limit of quantitation (500 ng/mL) were precisely and accurately diluted into the linear range with blank C.B-17 scid mouse plasma.
A plasma PK study of compound 20 in male C.B-17 scid mice receiving a continuous i.v. infusion of compound 20 (100 mg/kg over 30 min) was performed. Compound 20 was formulated in 15% Captisol®/50 mM Na2HPO4/NaH2PO4 solution at 3 mg/mL and infused with a syringe pump at a rate of 20 μL/min via a jugular vein catheter. Blood samples (1 to 2 samples per mouse, 18 samples from 11 total mice) were collected by either retro-orbital sinus bleeding or terminal cardiac puncture at the following times after the start of infusion: 7.5, 15, 30 (end of infusion), 35, 45, and 60 minutes. The samples were immediately processed to plasma by centrifugation at 2000 g for 5 min; the resultant volume of plasma was then protein precipitated with a 3:1 volume of ice cold IS processing solution. The supernatants were immediately placed on dry ice and then stored at −80° C. until analysis.
The concentration-time data for compound 20 in mice was analyzed using the MLEM population estimation method as implemented in ADAPTS (D'Argenio, D. Z. and Schumitzky, A., Wang ADAPT 5 User's Guide: Pharmacokinetic/Pharmacodynamic Systems Analysis Software; Biomedical Simulations Resource: Los Angeles, Calif., USA, 2009). A linear, one-compartment PL model was fit to the data, and the adequacy of the fit was assessed by the −2 log likelihood value, visual predictive checks, and the residual plots. Inter-individual variability in plasma clearance (CL) and volume of distributions (V) was assumed to be log-normally distributed with the covariance matrix constrained to diagonal elements. The residual, intra-individual error was described using an additive and proportional model, with the additive term fixed to the lower limit of quantitation of the LC-MS/MS assay (LLOQ, 1 ng/mL). Beal's M3 method was used to handle data that was below the LLOQ (Beal, S. L., J. Pharmacokinet. Pharmacodyn. 2001, 28, 481). Other secondary parameters, such as the area under the plasma concentration-time curve to infinity (AUCinf), maximum plasma concentration (Cmax), and the time of Cmax (Tmax) were derived for the population using standard formulae (Pharmacokinetics, Second Edition; Gibaldi, M.; Perrier, D., Eds.; 2nd ed.; CRC Press, 1982).

[3] = system: cell lines investigated; experiment: Drug combination assays, cell line not stated; assay type: cell-based; settings: all cell lines investigated
[4] = male, C.B-17 scid, mouse, plasma, iv, 100 mg/kg, i.v. infusion over 30 min, population

CNC(=O)O[C@@H](C)/C=C\C(=O)N[C@H]1CC[C@@H](C/C=C(C)/C=C/[C@@H]2C[C@]3(CO3)CC(C)(C)O2)CC1 [compound 20, (S,Z)-5-(((1R,4R)-4-((2E,4E)-5-((3R,5S)-7,7-Methyl-1,6-Dioxaspiro[2.5]Octan-5-Yl)-3-Methylpenta-2,4-Dien-1-Yl)Cyclohexyl)Amino)-5-Oxopent-3-En-2-Yl Methylcarbamate]
alternative MDM2 splicing [1]: induction of alternative MDM2 splicing
mean CL relative to hepatic blood flow ([2]; i.v. infusion over 30 min): 3 fold
V ([2]; i.v. infusion over 30 min, population mean): 0.877 L/kg
AUC(0-inf) [2, 4]: 12.5 µM·h
Cmax [2, 4]: 24.1 µM
Tmax [2, 4]: 30 min
half-life ([2]; male, C.B-17 scid, mouse, plasma, iv, 100 mg/kg, i.v. infusion over 30 min, population mean terminal elimination half-life): 2.18 min
clearance ([2]; male, C.B-17 scid, mouse, plasma, iv, i.v. infusion over 30 min (100 mg/kg, 50 mg/kg elsewhere in the source), population mean): 280 mL/min/kg
plasma concentration versus target plasma concentration ([2]; target far exceeded and maintained for an adequate time period): > 0.5 µM
synergy with PI3K/mTOR inhibition [3]: synergy is also seen
